Assay results from article PMC9672091, “Ameliorative effect of vanillin on scopolamine-induced dementia-like cognitive impairment in a mouse model” (Frontiers in Neuroscience, 2022).

Target: T1, acetylcholinesterase enzyme (from electric eel) (Electrophorus electricus, UniProt O42275)
T1 construct: gene ache; commercial enzyme from electric eel (Sigma-Aldrich), native source; no construct or oligomer details printed
Experiment: modified Ellman assay, absorbance at […] nm
Format: biochemical

T1 sequence (O42275 24-633): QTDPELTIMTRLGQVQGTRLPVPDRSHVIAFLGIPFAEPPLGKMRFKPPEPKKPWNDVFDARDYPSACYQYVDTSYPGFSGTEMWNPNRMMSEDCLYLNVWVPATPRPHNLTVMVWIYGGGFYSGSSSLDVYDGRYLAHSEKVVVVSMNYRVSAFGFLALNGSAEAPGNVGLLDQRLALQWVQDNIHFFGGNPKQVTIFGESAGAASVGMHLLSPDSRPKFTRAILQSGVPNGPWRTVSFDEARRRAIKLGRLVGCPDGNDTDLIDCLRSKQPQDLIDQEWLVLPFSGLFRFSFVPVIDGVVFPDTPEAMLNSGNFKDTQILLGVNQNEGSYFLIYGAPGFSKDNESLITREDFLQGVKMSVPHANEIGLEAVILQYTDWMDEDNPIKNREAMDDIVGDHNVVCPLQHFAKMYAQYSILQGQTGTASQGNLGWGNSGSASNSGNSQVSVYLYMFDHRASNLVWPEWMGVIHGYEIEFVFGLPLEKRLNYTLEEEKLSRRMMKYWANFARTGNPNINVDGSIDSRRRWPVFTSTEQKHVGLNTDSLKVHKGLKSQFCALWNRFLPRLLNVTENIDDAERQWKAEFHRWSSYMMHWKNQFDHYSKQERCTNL

COc1cc(C=O)ccc1O [Vanillin]
IC50: 33 µM
